ChEMBL document CHEMBL1131825, “A 2-nitroimidazole carbamate prodrug of 5-amimo-1-(chloromethyl)-3-[(5,6,7-trimethoxyindol-2-yl)carbony l]-1,2-dihydro-3H--benz[E]indole (amino-seco-CBI-TMI) for use with ADEPT and GDEPT” (Bioorg Med Chem Lett, 1999)

Columns and labels:
SK-OV-3 [1] = test: In vitro cytotoxicity against SKOV3 cell proliferation after 18 hr exposure in presence of 1 mM NADH + NTR; assay type: functional, cell-based; conditions: Homo sapiens, SK-OV-3, 18 h
SK-OV-3 [2] = test: In vitro cytotoxicity against SKOV3 cell proliferation after 18 hr exposure in absence of reagent; assay type: functional, cell-based; conditions: Homo sapiens, SK-OV-3, 18 h
SC-3 = test: In vitro cytotoxicity against SC3.2 cell proliferation after 18 hr exposure; assay type: functional, cell-based, Homo sapiens; conditions: Mus musculus, SC-3, 18 h
SK-OV-3 [3] = test: In vitro cytotoxicity against SKOV3 cell proliferation after 18 hr exposure in presence of 1 mM NADH; assay type: functional, cell-based; conditions: Homo sapiens, SK-OV-3, 18 h
SK-OV-3 [4] = test: In vitro cytotoxic activity against SKOV3 cell line after 1 hour at less than 0.01 % of oxygen in gas phase; assay type: functional, Homo sapiens
SK-OV-3 [5] = test: In vitro cytotoxic activity against SKOV3 cell line after 4 hours at 20% oxygen present in gas phase; assay type: functional, Homo sapiens
SK-OV-3 [6] = test: In vitro cytotoxic activity against SKOV3 cell line after 1 hour at 20% oxygen present in gas phase; assay type: functional, Homo sapiens
SK-OV-3 [7] = test: In vitro cytotoxic activity against SKOV3 cell line after 4 hours at less than 0.01 % of oxygen in gas phase; assay type: functional, Homo sapiens

Structure (SMILES) | IC50 (SK-OV-3 [1]) [nM] | IC50 (SK-OV-3 [2]) [nM] | IC50 (SC-3) [nM] | IC50 (SK-OV-3 [3]) [nM] | C10 (SK-OV-3 [4]) [nM] | C10 (SK-OV-3 [5]) [nM] | C10 (SK-OV-3 [6]) [nM] | C10 (SK-OV-3 [7]) [nM]
COc1cc2cc(C(=O)N3CC(CCl)c4c3cc(N)c3ccccc43)[nH]c2c(OC)c1OC (configuration not stated) | 1.14 | 1.1 | 2.17 | 0.96 | – | – | – | –
COc1cc2cc(C(=O)N3CC(CCl)c4c3cc(NC(=O)OCc3cnc([N+](=O)[O-])n3C)c3ccccc43)[nH]c2c(OC)c1OC (configuration not stated) | 8 | 75 | 3.5 | 57 | 135 | 600 | 2100 | 15
